In the supplement of paper PMC8671470:
± gives the standard deviation of the averaged measurements.

system: HL-60; test: cell viability (% survival relative to DMSO control); higher = less cytotoxic; conditions: 0.1 µM; 72 h; co-treatment: pictilisib 100 nM
Summary of the method: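 HL-60 cells grown in RPMI 1640 with 10% FBS were rescreened against the full library in 384-well plates, in duplicate, at five tenfold concentrations from 1 to 10,000 nM, alongside DMSO or 100 nM of one of three metabolic inhibitors for 72 h at 37 °C, 5% CO2. Reference wells contained DMSO or 10 μM proteasome inhibitor. Viability was read with CellTiter-Glo and normalised to these reference wells, and where reported, area under the curve was taken from four-parameter log-logistic fits in drc and PharmacoGx.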

`CC(C)CC(=O)N[C@H](C(=O)N[C@H](C(=O)N[C@@H](CC(C)C)[C@@H](O)CC(=O)N[C@@H](C)C(=O)N[C@@H](CC(C)C)[C@@H](O)CC(=O)O)C(C)C)C(C)C` [Pepstatin A] and `C=CCN(C)CCCCCCOc1ccc(C(=O)c2ccc(Br)cc2)c(F)c1.O=C(O)/C=C/C(=O)O` [Ro 48-8071 fumarate] are within error of each other in cell viability: 98.8 ± 10% for the first, 99.37 ± 0.9% for the second.

`Cc1cccc(Nc2cc(Cl)nc(SCC(=O)O)n2)c1C` [Pirinixic acid] and `C[C@]12C=CC(=O)C=C1CC[C@@H]1[C@@H]2[C@@H](O)C[C@@]2(C)[C@H]1CC[C@]2(O)C(=O)CO` [Prednisolone] are within error of each other in cell viability: 91.1 ± 6% for the first, 99.1 ± 3.6% for the second.

same assay, conditions: 1 µM; 72 h; co-treatment: AZD3965 100 nM

Compared with `CN(Cc1cnc2nc(N)nc(N)c2n1)c1ccc(C(=O)N[C@@H](CCC(=O)O)C(=O)O)cc1` [Methotrexate], `C=CCN(C)CCCCCCOc1ccc(C(=O)c2ccc(Br)cc2)c(F)c1.O=C(O)/C=C/C(=O)O` [Ro 48-8071 fumarate] is higher in cell viability: 26.3 ± 3.6% for the first, 94.9 ± 1.2% for the second.

First: COC(=O)c1cc2c(C(F)(F)F)cc(-c3ccccc3)cc2n1O [NHI-2]
Second: Cc1cccc(Nc2cc(Cl)nc(SCC(=O)O)n2)c1C [Pirinixic acid]
The cell viability of the first is higher: 107 ± 4.8% for the first, 99.2 ± 2.7% for the second.

Going from `CCCCCCCC/C=C\CCCCCCCC(=O)Nc1ccccc1` [Octadec-9-Enoic Acid Phenylamide] to `CC(=O)Nc1nc(C)c(-c2ccc(Cl)c(S(=O)(=O)NCCO)c2)s1` [PIK93], the cell viability falls from 101 ± 1.6% to 77.3 ± 2%.

First: CC[C@H](C)[C@H](N)C(=O)N1CCSC1 [P32/98]
Second: C[C@]12C=CC(=O)C=C1CC[C@@H]1[C@@H]2[C@@H](O)C[C@@]2(C)[C@H]1CC[C@]2(O)C(=O)CO [Prednisolone]
The cell viability of the first is lower: 98.4 ± 1.6% for the first, 103 ± 1.6% for the second.

`OC[C@H]1O[C@@H](n2cnc3c2N=CNC[C@H]3O)C[C@@H]1O` [Pentostatin] and `CC(C)CC(=O)N[C@H](C(=O)N[C@H](C(=O)N[C@@H](CC(C)C)[C@@H](O)CC(=O)N[C@@H](C)C(=O)N[C@@H](CC(C)C)[C@@H](O)CC(=O)O)C(C)C)C(C)C` [Pepstatin A] are the same in cell viability: 102 ± 2.8% for the first, 102 ± 7.8% for the second.

same assay, conditions: 1 µM; 72 h; co-treatment: DMSO vehicle

Compared with `CN(Cc1cnc2nc(N)nc(N)c2n1)c1ccc(C(=O)N[C@@H](CCC(=O)O)C(=O)O)cc1` [Methotrexate], `C=CCN(C)CCCCCCOc1ccc(C(=O)c2ccc(Br)cc2)c(F)c1.O=C(O)/C=C/C(=O)O` [Ro 48-8071 fumarate] is higher in cell viability: 32.7 ± 2.7% for the first, 102 ± 9.3% for the second.

`COC(=O)c1cc2c(C(F)(F)F)cc(-c3ccccc3)cc2n1O` [NHI-2] and `Cc1cccc(Nc2cc(Cl)nc(SCC(=O)O)n2)c1C` [Pirinixic acid] are within error of each other in cell viability: 102 ± 3.6% for the first, 100.4 ± 0.83% for the second.

Going from `CCCCCCCC/C=C\CCCCCCCC(=O)Nc1ccccc1` [Octadec-9-Enoic Acid Phenylamide] to `CC(=O)Nc1nc(C)c(-c2ccc(Cl)c(S(=O)(=O)NCCO)c2)s1` [PIK93], the cell viability falls from 101 ± 3.4% to 85.1 ± 1.8%.

Compared with `CC[C@H](C)[C@H](N)C(=O)N1CCSC1` [P32/98], `C[C@]12C=CC(=O)C=C1CC[C@@H]1[C@@H]2[C@@H](O)C[C@@]2(C)[C@H]1CC[C@]2(O)C(=O)CO` [Prednisolone] is higher in cell viability: 98.74 ± 0.79% for the first, 103 ± 1.3% for the second.

Going from `OC[C@H]1O[C@@H](n2cnc3c2N=CNC[C@H]3O)C[C@@H]1O` [Pentostatin] to `CC(C)CC(=O)N[C@H](C(=O)N[C@H](C(=O)N[C@@H](CC(C)C)[C@@H](O)CC(=O)N[C@@H](C)C(=O)N[C@@H](CC(C)C)[C@@H](O)CC(=O)O)C(C)C)C(C)C` [Pepstatin A], the cell viability falls from 106 ± 2.7% to 98.35 ± 0.18%.

same assay, conditions: 1 µM; 72 h; co-treatment: GSK2194069 100 nM

Compared with `CN(Cc1cnc2nc(N)nc(N)c2n1)c1ccc(C(=O)N[C@@H](CCC(=O)O)C(=O)O)cc1` [Methotrexate], `CC(=O)Nc1nc(C)c(-c2ccc(Cl)c(S(=O)(=O)NCCO)c2)s1` [PIK93] is higher in cell viability: 27.9 ± 3.6% for the first, 81.7 ± 1.3% for the second.

First: COC(=O)c1cc2c(C(F)(F)F)cc(-c3ccccc3)cc2n1O [NHI-2]
Second: CCCCCCCC/C=C\CCCCCCCC(=O)Nc1ccccc1 [Octadec-9-Enoic Acid Phenylamide]
The cell viability of the first is higher: 107.3 ± 0.8% for the first, 98.7 ± 4.8% for the second.

`CC[C@H](C)[C@H](N)C(=O)N1CCSC1` [P32/98] and `OC[C@H]1O[C@@H](n2cnc3c2N=CNC[C@H]3O)C[C@@H]1O` [Pentostatin] are within error of each other in cell viability: 98.7 ± 4.2% for the first, 101 ± 4.7% for the second.
